Consider 7 molecules from patent US20120046354A1, “ANTI-OXIDANT LOZENGES FOR THE PREVENTION AND TREATMENT OF RADIATION INDUCED MUCOSITIS, PRECANCEROUS LESIONS, ORAL CANCER AND OTHER ORAL CAVITY MUCOSAL DISORDERS” (priority 2010, published 2012).

For data set [1], the system named is severe mucositis. The following applies: 250 mg daily for 21 days then 75 mg daily; control group 38 patient-weeks, P=0.025; cited from earlier work.
Data set [2] relates to leukoplakia. Details: clinical response rate / response rate among patients with biopsy-proved dysplasia: dose or concentration left out as unconfirmed. The following applies: cited from earlier work.
Data set [3] deals with mucositis. The following applies: mouthwash; cited from earlier work.
The subject of data set [4] is oral leukoplakia. The following applies: topically applied; cited from earlier work.
For data set [5], the system named is mucositis after chemotherapy. The following applies: 1 mL topical oil (400 mg) twice daily, 18 patients; cited from earlier work.
The subject of data set [6] is radiation proctopathy. As to the kind of experiment: randomized double-blinded trial versus placebo in patients with radiation proctopathy. The data set is classed as in vivo, human. The following applies: 10,000 IU by mouth for 90 days. From the text:
(§1) The inventor has described a dramatic case of the patient with AIDS and anal carcinoma who developed a large radiation-induced anal ulceration with marked debility. The patient required high dose opioid therapy for control of anal pain. […] The inventor has also designed, conducted and published a randomized double-blinded trial comparing vitamin A in the form of retinyl palmitate (10,000 IU by mouth for 90 days) to placebo in patients with radiation proctopathy.

The subject of data set [7] is radiation-induced anal ulceration. The experiment in a line: case of a patient with AIDS and anal carcinoma with radiation-induced anal ulceration, orally administered vitamin A. The data set is classed as in vivo, human. The following applies: single patient.
Source text: as §1

For data set [8], the system named is wound healing. The following applies: following burn injury and surgeries, laboratory animals; cited from earlier work.
The mark [9] stands for this setting: three months of therapy, placebo 10 percent.

On to `CC1=C(/C=C/C(C)=C/C=C/C(C)=C/C=C/C=C(C)/C=C/C=C(C)/C=C/C2=C(C)CCCC2(C)C)C(C)(C)CCC1` [beta-carotene], for which, in data set [1], the severe mucositis is listed as 22 patient-weeks.

For `CC1=C(/C=C/C(C)=C/C=C/C(C)=C\C(=O)O)C(C)(C)CCC1` [isotretinoin, 13-cis-retinoic acid], in data set [2] (higher dose, 2 mg/kg per day), the “patients who required decreases in their dosage” value is recorded as 47%. Besides, in data set [2] (lower dose, 1 mg/kg per day), the “patients who developed conjunctivitis” value is reported as 29% and the xeroderma entry is listed as “common”. Moreover, in data set [2] (setting [9]), the clinical response rate is on record as 67% and the “response rate among patients with biopsy-proved dysplasia” value is reported as 54%. Also, the “patients with relapse of disease” value in data set [2] (within three months of discontinuation of treatment) is “about half”.

Regarding `[H]/N=C(\N/C(=N/[H])NCCCCCCNC(=N)NC(=N)Nc1ccc(Cl)cc1)Nc1ccc(Cl)cc1` [chlorhexidine], the effectiveness for mucositis result in data set [3] was “limited or possibly no effectiveness”.

Turning to `O=C(c1ccccc1)c1ccc2n1CCC2C(=O)O` (centres unmarked) [ketolorac], the “treatment of oral leukoplakia” value in data set [4] is listed as “did not appear to effectively treat”.

Consider vitamin E, for which the “benefit on mucosal lesions compared to soybean oil” value in data set [5] is “benefit”.

`CCCCCCCCCCCCCCCC(=O)OC/C=C(C)/C=C/C=C(C)/C=C/C1=C(C)CCCC1(C)C` [retinyl palmitate]: the “rectal symptoms of radiation proctopathy” value in data set [6] is recorded as “significantly reduced”. Further, in data set [7] (after twelve week oral course), the “persistence of wound healing and symptomatic relief” value was “more than six”. Besides, in data set [7] (twelve week course, orally administered), the “wound healing and symptomatic relief” value was “complete wound healing and symptomatic relief”.

With Vitamin A, the wound healing entry in data set [8] is recorded as “accelerate wound healing”.
